Reference: patent US11713306B2, “5-substituted difluoropiperidine compounds with blood-brain barrier penetrable capability” (Wayshine Biopharm Holding Limited, priority 2018, dated 2023)
pIC50: −log10 of the molar value.

Experiments:
EGFR = EGFR (Homo sapiens (Human), UniProt P00533); test: Kinase inhibition assay (Caliper, FAM-labeled peptide substrate); assay type: biochemical
Experimental: (§1) 2.5 times of the kinase (VEGFR2 or EGFR or FYN) buffer solution was added to the compound diluted in equal concentration in the 384-well plate and incubated at 22-27° C. for 10 minutes, then 2.5 times of the FAM-labeled peptide substrate and ATP buffer solution were added therein and incubated at 28° C., and then the stop buffer solution was added to stop the reaction. The data was read by Caliper and the following formula was used to calculate the IC50 inhibition: Percent inhibition=(max-conversion)/(max-min)*100. Staurosporine was used as a control. In kinase inhibition assays, some of the compounds of the present invention are effective in inhibiting VEGFR2/FYN/EGFR, so they have the potential for treating or preventing cancer or central nervous system diseases (Table 1).

VEGFR2 = VEGFR2 (Homo sapiens (Human), UniProt P35968); test: as above; assay type: biochemical
VEGFR2, sequence (P35968 20-1356): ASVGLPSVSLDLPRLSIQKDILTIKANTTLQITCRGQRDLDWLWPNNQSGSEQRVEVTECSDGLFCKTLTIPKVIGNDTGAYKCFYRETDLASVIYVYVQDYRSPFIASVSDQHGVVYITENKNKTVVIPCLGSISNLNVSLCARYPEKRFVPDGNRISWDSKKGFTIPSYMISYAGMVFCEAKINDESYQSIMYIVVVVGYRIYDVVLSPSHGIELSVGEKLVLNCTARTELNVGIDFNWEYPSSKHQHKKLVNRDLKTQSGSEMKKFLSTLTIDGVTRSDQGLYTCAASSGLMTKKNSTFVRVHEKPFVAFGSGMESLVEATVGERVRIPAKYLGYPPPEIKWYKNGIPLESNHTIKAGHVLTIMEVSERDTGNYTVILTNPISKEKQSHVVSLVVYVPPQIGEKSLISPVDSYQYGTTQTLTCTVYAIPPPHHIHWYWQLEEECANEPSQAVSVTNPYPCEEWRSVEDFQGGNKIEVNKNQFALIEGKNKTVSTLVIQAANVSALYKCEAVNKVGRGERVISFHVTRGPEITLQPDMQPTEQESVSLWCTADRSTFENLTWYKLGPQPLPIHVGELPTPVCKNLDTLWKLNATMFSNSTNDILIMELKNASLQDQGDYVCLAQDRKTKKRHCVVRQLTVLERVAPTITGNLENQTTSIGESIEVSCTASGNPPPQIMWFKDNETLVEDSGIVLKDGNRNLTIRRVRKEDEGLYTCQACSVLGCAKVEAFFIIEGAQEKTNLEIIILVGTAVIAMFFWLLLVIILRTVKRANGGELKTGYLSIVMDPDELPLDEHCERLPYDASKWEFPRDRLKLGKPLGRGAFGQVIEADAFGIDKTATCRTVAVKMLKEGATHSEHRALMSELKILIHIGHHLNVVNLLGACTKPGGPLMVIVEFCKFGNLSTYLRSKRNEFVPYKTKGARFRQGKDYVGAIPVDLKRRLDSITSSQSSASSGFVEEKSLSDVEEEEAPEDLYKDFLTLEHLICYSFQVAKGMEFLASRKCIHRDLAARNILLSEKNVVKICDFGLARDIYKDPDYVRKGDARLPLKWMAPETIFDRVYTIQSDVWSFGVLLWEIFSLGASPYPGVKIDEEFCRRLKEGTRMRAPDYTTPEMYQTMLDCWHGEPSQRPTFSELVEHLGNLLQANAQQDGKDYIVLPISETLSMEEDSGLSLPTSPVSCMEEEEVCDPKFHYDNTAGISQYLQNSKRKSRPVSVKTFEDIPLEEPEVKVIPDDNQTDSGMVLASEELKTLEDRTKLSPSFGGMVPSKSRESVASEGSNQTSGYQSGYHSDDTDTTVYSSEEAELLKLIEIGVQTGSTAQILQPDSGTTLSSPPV
Experimental: as §1

PC-9Luc tumor cells = test: PC-9Luc tumor cell mouse intracranial animal model; assay type: in vivo; conditions: monotherapy, 3 mg/kg, oral, twice a day, three weeks; vs control group
Experimental: (§2) In the efficacy experiment of SKOV3 tumor cell mouse subcutaneous animal model (FIG. 1), the drug was administered on the 30th day after the tumor cells were planted and the drug administration was lasted for four weeks. […] In the efficacy experiment of the PC-9Luc tumor cell mouse intracranial animal model (FIG. 2), the drug was administered on the 10th day after the tumor cells were planted and the drug administration was lasted for three weeks. The second group of compound 1 was used as monotherapy, 10 mg/kg, oral dosing, twice a day; the third group of EGFR inhibitors (chemical name: (R)-6-[(3,3-difluoro-1-methylpiperidin-4-yl)oxy]-nitrogen-(3-ethynyl-2-fluorophenyl)-7-methoxyquinazolin-4-amine) was used as monotherapy, 3 mg/kg, oral dosing, twice a day; the fourth group of compound 1 combined with EGFR inhibitors.

SKOV3 tumor cells = test: SKOV3 tumor cell mouse subcutaneous animal model; assay type: in vivo; conditions: monotherapy, oral, twice a day, four weeks, vs control group
Experimental: as §2

FYN = FYN (Homo sapiens (Human), UniProt P06241); test: Kinase inhibition assay (Caliper, FAM-labeled peptide substrate); assay type: biochemical
FYN, sequence (P06241 whole entry): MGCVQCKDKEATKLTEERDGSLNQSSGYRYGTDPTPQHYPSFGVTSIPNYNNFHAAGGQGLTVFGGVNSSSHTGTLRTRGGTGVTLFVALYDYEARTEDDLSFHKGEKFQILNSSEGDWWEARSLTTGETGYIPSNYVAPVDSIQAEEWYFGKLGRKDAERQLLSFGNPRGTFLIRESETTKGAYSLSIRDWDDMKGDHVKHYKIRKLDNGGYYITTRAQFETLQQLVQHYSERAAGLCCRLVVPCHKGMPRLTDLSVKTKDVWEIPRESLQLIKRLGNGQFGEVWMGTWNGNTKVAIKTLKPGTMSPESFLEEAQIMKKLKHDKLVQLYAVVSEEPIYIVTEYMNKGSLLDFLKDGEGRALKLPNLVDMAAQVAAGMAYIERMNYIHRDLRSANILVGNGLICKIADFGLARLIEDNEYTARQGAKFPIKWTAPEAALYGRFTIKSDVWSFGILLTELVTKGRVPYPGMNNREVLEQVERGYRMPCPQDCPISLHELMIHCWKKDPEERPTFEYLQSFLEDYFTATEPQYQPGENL
Experimental: as §1

EGFR, sequence (P00533 25-1210, species assumed): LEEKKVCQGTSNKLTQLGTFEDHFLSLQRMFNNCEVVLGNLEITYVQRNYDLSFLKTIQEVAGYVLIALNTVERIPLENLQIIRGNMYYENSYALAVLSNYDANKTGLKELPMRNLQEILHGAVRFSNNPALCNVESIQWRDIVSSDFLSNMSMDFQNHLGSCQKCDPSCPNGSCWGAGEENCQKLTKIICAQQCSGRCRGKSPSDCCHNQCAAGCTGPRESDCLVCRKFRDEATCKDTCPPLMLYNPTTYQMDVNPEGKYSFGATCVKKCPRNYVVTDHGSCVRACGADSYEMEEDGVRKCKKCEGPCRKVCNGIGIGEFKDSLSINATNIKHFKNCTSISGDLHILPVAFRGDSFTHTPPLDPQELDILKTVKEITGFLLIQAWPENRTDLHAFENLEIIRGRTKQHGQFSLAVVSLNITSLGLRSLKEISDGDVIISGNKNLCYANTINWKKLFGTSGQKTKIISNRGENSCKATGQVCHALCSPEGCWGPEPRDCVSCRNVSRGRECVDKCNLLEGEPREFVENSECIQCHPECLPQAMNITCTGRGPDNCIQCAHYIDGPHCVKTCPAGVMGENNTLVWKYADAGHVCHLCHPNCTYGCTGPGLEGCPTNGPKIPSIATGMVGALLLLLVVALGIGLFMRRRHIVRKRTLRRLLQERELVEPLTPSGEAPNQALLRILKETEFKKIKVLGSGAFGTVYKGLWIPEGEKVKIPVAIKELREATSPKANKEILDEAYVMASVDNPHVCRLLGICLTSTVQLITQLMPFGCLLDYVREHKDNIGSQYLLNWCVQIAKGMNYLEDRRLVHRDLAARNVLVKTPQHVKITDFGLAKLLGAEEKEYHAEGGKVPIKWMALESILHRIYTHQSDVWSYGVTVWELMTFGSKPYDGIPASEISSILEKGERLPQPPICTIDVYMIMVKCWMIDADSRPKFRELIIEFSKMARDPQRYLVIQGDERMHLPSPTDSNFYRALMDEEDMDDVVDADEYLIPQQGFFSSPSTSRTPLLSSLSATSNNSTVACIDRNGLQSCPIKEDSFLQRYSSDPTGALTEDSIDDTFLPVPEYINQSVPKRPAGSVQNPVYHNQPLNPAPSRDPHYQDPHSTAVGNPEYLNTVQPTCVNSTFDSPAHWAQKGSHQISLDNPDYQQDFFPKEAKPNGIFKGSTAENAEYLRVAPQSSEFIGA

Structure (SMILES)	pIC50 (VEGFR2)	pIC50 (FYN)	also measured
C#Cc1c(F)ccc(Nc2ncnc3cc(OC)cc(O[C@H]4CCN(C)CC4(F)F)c23)c1F [Compound 48, (S)-5-((3,3-difluoro-1-methylpiperidin-4-yl)oxy)-N-(3-ethynyl-2,4-difluorophenyl)-7-methoxyquinazolin-4-amine]	–	–	pIC50 (EGFR): > 8.00
COc1cc(O[C@@H]2CCN(C)CC2(F)F)c2c(Oc3ccc4[nH]c(C)cc4c3F)ncnc2c1 [Compound 18, (R)-5-((3,3-difluoro-1-methylpiperidin-4-yl)oxy)-4-((4-fluoro-2-methyl-1H-indole-5-yl)oxy)-7-deuterated methoxyquinazoline]	> 8.00	–	–
C#Cc1c(F)ccc(Nc2ncnc3cc(OC)cc(O[C@@H]4CCN(C)CC4(F)F)c23)c1F [Compound 32, (R)-5-((3,3-difluoro-1-methylpiperidin-4-yl)oxy)-N-(3-ethynyl-2,4-difluorophenyl)-7-methoxyquinazolin-4-amine]	–	–	pIC50 (EGFR): > 8.00
COc1cc(O[C@@H]2CCN(C)CC2(F)F)c2c(Oc3cc(F)c4[nH]c(C)cc4c3F)ncnc2c1 [Compound 19, (R)-5-((3,3-difluoro-1-methylpiperidin-4-yl)oxy)-4-((4,7-difluoro-2-methyl-1H-indol-5-yl)oxy)-7-methoxyquinazoline]	> 8.00	–	–
C#Cc1cccc(Nc2ncnc3cc(OC)cc(O[C@@H]4CCN(C)CC4(F)F)c23)c1F [Compound 27, (R)-5-((3,3-difluoro-1-methylpiperidin-4-yl)oxy)-N-(3-ethynyl-2-fluorophenyl)-7-methoxyquinazolin-4-amine]	–	–	pIC50 (EGFR): > 8.00
COc1cc(OC2CCN(C)CC2(F)F)c2c(Oc3ccc4[nH]c(C)cc4c3F)ncnc2c1 (racemic) [Compound 2, (R/S)-5-((3,3-difluoro-1-methylpiperidin-4-yl)oxy)-4-((4-fluoro-2-methyl-1H-indole-5-yl)oxy)-7-deuterated methoxyquinazoline]	> 8.00	–	–
C#Cc1cccc(Nc2ncnc3cc(OC)c(O[C@@H]4CCN(C)CC4(F)F)cc23)c1F [EGFR inhibitor, (R)-6-[(3,3-difluoro-1-methylpiperidin-4-yl)oxy]-nitrogen-(3-ethynyl-2-fluorophenyl)-7-methoxyquinazolin-4-amine]	–	–	inhibition of intracranial tumor growth (PC-9Luc tumor cells): good inhibition on intracranial tumor growth
COc1cc(O[C@H]2CCN(C)CC2(F)F)c2c(Oc3cc(F)c4[nH]c(C)cc4c3F)ncnc2c1 [Compound 35, (S)-5-((3,3-difluoro-1-methylpiperidin-4-yl)oxy)-4-((4,7-difluoro-2-methyl-1H-indol-5-yl)oxy)-7-methoxyquinazoline]	> 8.00	–	–
C#Cc1cccc(Nc2ncnc3cc(OC)cc(O[C@H]4CCN(C)CC4(F)F)c23)c1F (single isomer, unassigned) [Compound 43]	–	–	pIC50 (EGFR): > 8.00
COc1cc(O[C@@H]2CCN(C)CC2(F)F)c2c(Oc3ccc4[nH]c(C)cc4c3F)ncnc2c1 [Compound 17, (R)-5-((3,3-difluoro-1-methylpiperidin-4-yl)oxy)-4-((4-fluoro-2-methyl-1H-indole-5-yl)oxy)-7-methoxyquinazoline]	> 8.00	–	–
COc1cc(OC2CCN(C)CC2(F)F)c2c(Oc3ccc4[nH]c(C)cc4c3F)ncnc2c1 (racemic) [Compound 1, (R/S)-5-((3,3-difluoro-1-methylpiperidin-4-yl)oxy)-4-((4-fluoro-2-methyl-1H-indole-5-yl)oxy)-7-methoxyquinazoline]	> 8.00	–	inhibition of tumor growth (SKOV3 tumor cells; 10 mg/kg): good inhibition of tumor growth; inhibition of tumor growth (SKOV3 tumor cells; 20 mg/kg): good inhibition of tumor growth
COc1cc(O[C@H]2CCN(C)CC2(F)F)c2c(Oc3ccc4[nH]c(C)cc4c3F)ncnc2c1 [Compound 34, (S)-5-((3,3-difluoro-1-methylpiperidin-4-yl)oxy)-4-((4-fluoro-2-methyl-1H-indole-5-yl)oxy)-7-deuterated methoxyquinazoline]	> 8.00	–	–
CCOc1cc(O[C@H]2CCN(C)CC2(F)F)c2c(Nc3c(F)ccc4c3OCO4)ncnc2c1 [Compound 38, (S)—N-(5-fluorobenzo[d][1,3]dioxolcyclopenten-4-yl)-5-((3,3-difluoro-1-methylpiperidin-4-yl)oxy)-7-ethoxyquinazolin-4-amine]	–	> 7.00	–
COc1cc(O[C@@H]2CCN(C3COC3)CC2(F)F)c2c(Nc3c(Cl)ccc4c3OCO4)ncnc2c1 [Compound 30, (R)-5-((3,3-difluoro-1-(oxetane-3-yl)piperidin-4-yl)oxy)-N-(5-chlorobenzo[d][1,3]dioxolcyclopenten-4-yl)-7-methoxyquinazolin-4-amine]	–	> 7.00	–
COc1cc(O[C@@H]2CCN(C3COC3)CC2(F)F)c2c(Nc3c(F)ccc4c3OCO4)ncnc2c1 [Compound 29, (R)-5-((3,3-difluoro-1-(oxetane-3-yl)piperidin-4-yl)oxy)-N-(5-fluorobenzo[d] [1,3]dioxolcyclopenten-4-yl)-7-methoxyquinazolin-4-amine]	–	> 7.00	–
C#Cc1cccc(Nc2ncnc3cc(OC)cc(OC4CCN(C)CC4(F)F)c23)c1F (racemic) [Compound 11, (R/S)-5-((3,3-difluoro-1-methylpiperidin-4-yl)oxy)-N-(3-ethynyl-2-fluorophenyl)-7-methoxyquinazolin-4-amine]	–	–	pIC50 (EGFR): > 8.00
COc1cc(O[C@@H]2CCN(C)CC2(F)F)c2c(Nc3c(Cl)ccc4c3OCO4)ncnc2c1 [Compound 20, (R)—N-(5-chlorobenzo[d][1,3]dioxolcyclopenten-4-yl)-5-((3,3-difluoro-1-methylpiperidin-4-yl)oxy)-7-methoxyquinazolin-4-amine]	–	> 7.00	–
CCOc1cc(O[C@@H]2CCN(C)CC2(F)F)c2c(Nc3c(Cl)ccc4c3OCO4)ncnc2c1 [Compound 25, (R)—N-(5-chlorobenzo[d][1,3]dioxolcyclopenten-4-yl)-5-((3,3-difluoro-1-methylpiperidin-4-yl)oxy)-7-ethoxyquinazolin-4-amine]	–	> 7.00	–
COc1cc(O[C@H]2CCN(C)CC2(F)F)c2c(Oc3ccc4[nH]c(C)cc4c3F)ncnc2c1 [Compound 33, (S)-5-((3,3-difluoro-1-methylpiperidin-4-yl)oxy)-4-((4-fluoro-2-methyl-1H-indole-5-yl)oxy)-7-methoxyquinazoline]	> 8.00	–	–
COc1cc(O[C@@H]2CCN(C)CC2(F)F)c2c(Nc3cc(OC)c(Cl)cc3F)ncnc2c1 [Compound 24, (R)—N-(4-chloro-2-fluoro-5-methoxyphenyl)-5-((3,3-difluoro-1-methylpiperidin-4-yl)oxy)-7-methoxyquinazolin-4-amine]	–	> 7.00	–
COc1cc(O[C@@H]2CCN(C)CC2(F)F)c2c(Nc3c(Cl)ccc4c3OCO4)ncnc2c1 [Compound 28, (R)—N-(5-chlorobenzo[d] [1,3]dioxolcyclopenten-4-yl)-5-((3,3-difluoro-1-methylpiperidin-4-yl)oxy)-7-deuterated methoxyquinazolin-4-amine]	–	> 7.00	–
COc1cc(OC2CCN(C3COC3)CC2(F)F)c2c(Nc3c(F)ccc4c3OCO4)ncnc2c1 (racemic) [Compound 13, (R/S)-5-((3,3-difluoro-1-(oxetane-3-yl)piperidin-4-yl)oxy)-N-(5-fluorobenzo[d][1,3]dioxolcyclopenten-4-yl)-7-methoxyquinazolin-4-amine]	–	> 7.00	–
CCOc1cc(OC2CCN(C)CC2(F)F)c2c(Nc3c(Cl)ccc4c3OCO4)ncnc2c1 (racemic) [Compound 9, (R/S)—N-(5-chlorobenzo[d][1,3]dioxolcyclopenten-4-yl)-5-((3,3-difluoro-1-methylpiperidin-4-yl)oxy)-7-ethoxyquinazolin-4-amine]	–	> 7.00	–
C#Cc1c(F)ccc(Nc2ncnc3cc(OC)cc(OC4CCN(C)CC4(F)F)c23)c1F (racemic) [Compound 16, (R/S)-5-((3,3-difluoro-1-methylpiperidin-4-yl)oxy)-N-(3-ethynyl-2,4-difluorophenyl)-7-methoxyquinazolin-4-amine]	–	–	pIC50 (EGFR): > 8.00
CCN1CC[C@@H](Oc2cc(OC)cc3ncnc(Nc4c(F)ccc5c4OCO5)c23)C(F)(F)C1 [Compound 26, (R)-5-((1-ethyl-3,3-difluoropiperidin-4-yl)oxy)-N-(5-fluorobenzo[d] [1,3]dioxolcyclopenten-4-yl)-7-methoxyquinazolin-4-amine]	–	> 7.00	–
COc1cc(OC2CCN(C)CC2(F)F)c2c(Oc3cc(F)c4[nH]c(C)cc4c3F)ncnc2c1 (racemic) [Compound 3, (R/S)-5-((3,3-difluoro-1-methylpiperidin-4-yl)oxy)-4-((4,7-difluoro-2-methyl-1H-indol-5-yl)oxy)-7-methoxyquinazoline]	> 8.00	–	–
COc1cc(O[C@H]2CCN(C)CC2(F)F)c2c(Nc3c(Cl)ccc4c3OCO4)ncnc2c1 [Compound 36, (S)—N-(5-chlorobenzo[d][1,3]dioxolcyclopenten-4-yl)-5-((3,3-difluoro-1-methylpiperidin-4-yl)oxy)-7-methoxyquinazolin-4-amine]	–	> 7.00	–
